Here are results for 1 molecule from patent US8937039B2, “Peptide-based peroxidase inhibitors and methods of using same” (The Medical College of Wisconsin, Inc., priority 2009, dated 2015).

For one experiment, the system named is C57BL/6J mice. As to the kind of experiment: Pulmonary retention of Q-dot labeled EMPs (acute lung injury). The conditions noted are these: pretreatment and treatment with KYC. Format: in vivo, mouse. As to the method: KYC Inhibits Acute Lung Injury. Inflammation and sepsis induce the release of endothelial cell microparticles (EMPs). Increased production of EMPs is hypothesized to play a causal role in the mechanisms mediating acute lung injury (ALI). To test this hypothesis, the inventors incubated human umbilical vein endothelial cells with PAI-1, which is well-recognized for inducing endothelial cells to generate EMPs. The EMPs were collected by ultracentrifugation, resuspended in physiological saline solution and then labeled with Q-dots. The Q-dot labeled EMPs were counted and then injected into C57BL/6J mice to achieve a final concentration of 100,000 EMPs/mL of blood. Mice were pretreated with phosphate buffered saline (FIG. 6) or KYC and then were injected with Q-dot labeled EMPs alone or Q-dot labeled EMPs plus KYC (FIG. 6).

Experiment [1] has as its system OVA-sensitized C57BL/6J mice. Description: OVA-sensitized murine model of asthma (lung histology). Format: in vivo, mouse. The conditions noted are these: KYC 0.3 mg/kg every other day, 5 treatments. The source says: Murine Model of Experimentally-Induced Asthma. C57BL/6J mice (12-14 wk old) from Jackson Laboratory (Bar Harbor, Me.) were housed in sterile autoclavable microisolation cages and fed standard laboratory mouse chow and water ad libitum. All protocols were approved by the Institutional Animal Care and Use Committee (IACUC) of the Medical College of Wisconsin.
C57BL/6J mice were divided into three groups; a control group (Control), an ovalbumin (OVA)-sensitized group and an OVA-sensitized group treated with KYC. OVA sensitization was achieved using a modification of a protocol previously described by de Siqueira et al^15 (FIG. 1). […] When mice inhale aerosolized OVA, robust allergic responses are routinely observed.
Briefly, on day one, mice were anesthetized (halothane; Halocarbon Laboratories, River Edge, N.J.) and a heat-denatured OVA fragment (˜80 mg, 5×2×2 mm) was implanted subcutaneously in the dorsal aspect of the neck. The incision was closed with stainless steel clips and the mouse was allowed to recover. Implantation of the heat-denatured OVA fragment initiates sensitization. On day fifteen, the implanted mice were exposed to aerosolized OVA (6% in PBS) for 30 minutes every other day for ten days. Twenty-four hours after the last OVA challenge, the mice were deeply anesthetized (halothane), sacrificed by exsanguination and the lungs removed for analysis. […]

The subject of a further experiment is SCD mice. Description: Vasodilatation of pressurized facialis arteries from SCD mice treated in vivo. The arrangement: species or system mouse. The conditions noted are these: KYC, three weeks. As to the method:
Murine Model of Sickle Cell Disease. Mice treated with KYC in vivo. SCD mice were treated with KYC (intraperitoneal injection: IP 0.3 mg/kg/d) or with PBS (IP 100 μL) for 3 weeks. Anesthesia was induced with Ketamine (100 mg/kg)+Xylazine (10 mg/kg) cocktail (ip) and then sacrificed by exsanguination. Facialis arteries were atraumatically dissected and maintained in cooled MOPS solution (in mM: NaCl 145, KCL 4.7, CaCl2 2, NaH2PO4 1.2, MgSO4, 1.2, pyruvate 2, EDTA 0.02, MOPS 3.0, and glucose 5.0, at pH 7.4). Vessels were then submerged in a MOPS bath, mounted on MOPS-containing glass capillary tubes, internally pressurized (60 mmHg), and warmed to 37° C. Internal vascular diameters were measured with a calibrated video-microscope (Boeckeler). After the vessel was allowed to acclimate to 37° C. (approximately 30 min), the diameter was measured and recorded (Dmax). […] A control dose-response curve using acetylcholine (ACh, 10^−7-10^−4 M) was performed and vessel diameter recorded. […] Vasodilation to papaverine ([…]) was determined after all treatments to ensure smooth muscle viability. Vasodilation was calculated as a percent of maximal vessel diameter change.
Vasodilatation. […] Physiological responses to increasing concentrations of acetylcholine (ACh) were determined by videomicroscopy as previously described.

Residues, ends and D or L forms follow the SMILES beside them.

For `CC(=O)N[C@@H](CCCCN)C(=O)N[C@@H](Cc1ccc(O)cc1)C(=O)N[C@@H](CS)C(N)=O` [KYC, N-acetyl Lysyltyrosylcysteine Amide] (Ac-Lys-Tyr-Cys-NH2), in the experiment with C57BL/6J mice, the “Pulmonary retention of Q-dot labeled EMPs (in words)” value is given as “dramatically decreases”. In experiment [1] (H&E), the “Eosinophil infiltration in the lungs (in words)” value is “markedly reduce eosinophil infiltration to essentially control levels”. The “Collagen deposition in the lungs (in words)” value in experiment [1] (trichrome) is recorded as “markedly reduces collagen deposition to control levels”. For the same molecule, the “Endothelium- and eNOS-dependent vasodilatation (in words)” value in the experiment on SCD mice is listed as “dramatically increases”.
